Reference: patent US8754115B2, “Fungicidal pyrazoles” (E I du Pont de Nemours and Company, priority 2010, dated 2014)
Marks after values point to notes of the source that are not given here.

Columns and labels:
Assay type in all cases: in vivo
[1] = test system: Blumeria graminis f. sp. tritici; assay: Test F: preventive spray on wheat seedlings, visual disease rating (wheat powdery mildew); details: for pest or weed control at 40 ppm: Blumeria graminis, 192 h
How it was run: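 Compound in acetone/water (50/50) with 250 ppm surfactant, sprayed to run-off on wheat seedlings at 200 ppm (≈800 g/ha) or, where marked, 40 ppm. Seedlings dusted with spores the next day, kept 8 days at 20° C., then rated visually as % disease control versus untreated plants.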

Botrytis cinerea = assay: Test A: preventive spray on tomato seedlings, visual disease rating (tomato Botrytis)
How it was run: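 Tomato seedlings sprayed to run-off with 200 ppm suspension (800 g/ha; asterisk marks 40 ppm), inoculated next day with Botrytis cinerea spores, held 48 h saturated at 20 °C then 3 days at 24 °C. Visual rating: 100 = full disease control, 0 = none, relative to controls.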

Septoria nodorum = assay: Test C: preventive spray on wheat seedlings, visual disease rating (Septoria glume blotch); details: for pest or weed control at 40 ppm: Parastagonospora nodorum, 192 h
Source text: (§1) General protocol for preparing test suspensions for Tests A-F: the test compounds were first dissolved in acetone in an amount equal to 3% of the final volume and then suspended at the desired concentration (in ppm) in acetone and purified water (50/50 mix by volume) containing 250 ppm of the surfactant Trem® 014 (polyhydric alcohol esters). The resulting test suspensions were then used in Tests A-F. Spraying a 200 ppm test suspension to the point of run-off on the test plants was the equivalent of a rate of 800 g/ha. Unless otherwise indicated, the rating values indicate a 200 ppm test suspension was used. (An asterisk “*” next to the rating value indicates a 40 ppm test suspension was used.)
(§2) The test suspension was sprayed to the point of run-off on wheat seedlings. The following day the seedlings were inoculated with a spore suspension of Septoria nodorum (the causal agent of Septoria glume blotch) and incubated in a saturated atmosphere at 24° C. for 48 h, and then moved to a growth chamber at 20° C. for 6 days, after which time visual disease ratings were made.
(§3) Results for Tests A-F are given in Table A. In the Table, a rating of 100 indicates 100% disease control and a rating of 0 indicates no disease control (relative to the controls). A dash (-) indicates no test results. An asterisk “*” next to the rating value indicates a 40 ppm test suspension was used.

Septoria tritici = assay: Test D: preventive spray on wheat seedlings, visual disease rating (wheat leaf blotch); details: for pest or weed control at 40 ppm: Zymoseptoria tritici, 504 h
How it was run: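 Wheat seedlings were sprayed to run-off with a 200 ppm suspension (equal to 800 g/ha), or 40 ppm where marked with an asterisk, and inoculated with Septoria tritici spores the next day. Plants were kept at 24 °C in saturated air for 48 h, then at 20 °C for 19 days. Disease control was rated visually from 0 to 100 relative to controls.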

[2] = test system: Puccinia recondite f. sp. tritici; assay: Test E1: curative spray on wheat seedlings after inoculation, visual disease rating (wheat leaf rust); details: for pest or weed control at 40 ppm: 144 h
Source text: as §1
Wheat seedlings were inoculated with a spore suspension of Puccinia recondite f. sp. tritici (the causal agent of wheat leaf rust) and incubated in a saturated atmosphere at 20° C. for 24 h, and then moved to a growth chamber at 20° C. for 2 days. After 2 days, the test suspension was sprayed to the point of run-off on the wheat seedlings, and then the seedlings were moved back to the growth chamber at 20° C. for 6 days. Upon removal, visual disease ratings were made.
as §3

Alternaria solani = assay: Test B: preventive spray on tomato seedlings, visual disease rating (tomato early blight); details: for pest or weed control at 40 ppm: Alternaria solani, 168 h
Source text: as §1
as §2, with “tomato” for “wheat”, “Alternaria solani” for “Septoria nodorum”, “tomato early blight)” for “Septoria glume blotch)”, “27°” for “24°”, “5” for “6”
as §3

[3] = test system: Puccinia recondite f. sp. tritici; assay: Test E2: preventive spray on wheat seedlings, visual disease rating (wheat leaf rust); details: for pest or weed control at 40 ppm: 192 h
How it was run: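 Test suspension (acetone 3% of volume, acetone/water 50/50, 250 ppm Trem 014), 200 ppm unless starred (40 ppm), sprayed to run-off on wheat seedlings; inoculated next day with P. recondita spores. 24 h saturated atmosphere at 20 °C, then 7 days at 20 °C; visual rating, 100 = full control vs untreated.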

[4] = no asterisk: standard test suspension, not 40 ppm
[5] = no asterisk: standard test suspension, not 40 ppm, 100 = 100% disease control, 0 = none
[6] = asterisk: 40 ppm test suspension

| Compound | Test F rating (% disease control) [1, 4] [%] | Test A rating (% disease control) (Botrytis cinerea; [5]) [%] | Test C rating (% disease control) (Septoria nodorum; [4]) [%] | Test D rating (% disease control) (Septoria tritici; [4]) [%] | Test E1 rating (% disease control) [2, 4] [%] | Test B rating (% disease control) (Alternaria solani; [4]) [%] | Test E2 rating (% disease control) [3, 4] [%] | Test D rating (% disease control) (Septoria tritici; [6]) | Test E1 rating (% disease control) [2, 6] | Test B rating (% disease control) (Alternaria solani; [6]) | other results |
| --- | --- | --- | --- | --- | --- | --- | --- | --- | --- | --- | --- |
| α-(2,4-difluorophenyl)-5-(2,6-difluorophenyl)-1,3-dimethyl-1H-pyrazole-4-methanol [Compound 14] | 97 | 98 | 0 | 100 | 75 | 0 | 98 |  |  |  |  |
| Cc1nn(C)c(-c2c(F)cccc2Cl)c1C(O)c1c(Cl)cccc1Cl (stereo not shown) [compound 85] | 50 | 97 | 0 | 100 | 9 | 84 | 100 |  |  |  |  |
| Cc1nn(C)c(-c2c(F)cccc2F)c1C(O)c1c(F)cc(F)cc1F (stereo not shown) [compound 15] | 100 | 100 | 86 | 100 | 68 | 100 | 100 |  |  |  |  |
| Cc1nn(C)c(-c2ccc(F)cc2Cl)c1Nc1ccc(F)cc1 [compound 41] | 0 | 100 | 0 | 98 | 0 | 64 | 41 |  |  |  |  |
| Cc1nn(C)c(-c2ccc(F)cc2Cl)c1Nc1ccc(Cl)cc1F [Compound 45] | 99 | 100 | 0 | 100 | 77 | 0 | 97 | 100* % | 0* % | 33* % | Test F rating (% disease control) [1, 6]: 100* %; Test A rating (% disease control) (Botrytis cinerea; [6]): 98* %; Test C rating (% disease control) (Septoria nodorum; [6]): 0* %; Test E2 rating (% disease control) [3, 6]: 95* % |
| Cn1nc(C#N)c(C(O)c2ccc(F)cc2Cl)c1-c1c(F)cccc1F (stereo not shown) [Compound 53, 4-[(2-chloro-4-fluorophenyl)hydroxymethyl]-5-(2,6-difluorophenyl)-1-methyl-1H-pyrazole-3-carbonitrile] |  |  |  |  |  |  |  |  |  |  | pest or weed control at 40 ppm [1, 6]: 43%; pest or weed control at 40 ppm (Botrytis cinerea; Botrytis cinerea, 120 h, asterisk: 40 ppm test suspension): 93%; pest or weed control at 40 ppm (Septoria nodorum; [6]): 0%; pest or weed control at 40 ppm (Septoria tritici; [6]): 100%; pest or weed control at 40 ppm [2, 6]: 0%; pest or weed control at 40 ppm (Alternaria solani; [6]): 99%; pest or weed control at 40 ppm [3, 6]: 93% |
| Cc1nn(C)c(-c2c(Cl)cccc2Cl)c1C(O)c1ccc(F)cc1Cl (stereo not shown) [compound 69] | 97 | 99 | 96 | 100 | 0 | 100 | 99 |  |  |  |  |
| Cc1nn(C)c(-c2c(F)cccc2F)c1Nc1ccc(Cl)cc1Cl [compound 65] | 100 | 100 | 0 | 100 | 9 | 0 | 89 |  |  |  |  |
| COc1cc(F)c(C(O)c2c(C)nn(C)c2-c2c(F)cccc2Cl)c(F)c1 (stereo not shown) [compound 39] | 99 | 95 | 60 | 100 | 97 | 58 | 100 |  |  |  |  |
| Cc1nn(C)c(-c2c(F)cccc2F)c1[S+]([O-])c1ccc(Cl)cc1 (stereo not shown) [compound 63] | 76 | 0 | 0 | 0 | 0 | 0 | 28 |  |  |  |  |
| Cc1nn(C)c(-c2ccc(C#N)cc2F)c1Oc1ccc(F)cc1F [compound 26] | 64 | 100 | 0 |  | 0 | 0 | 79 |  |  |  |  |
| Cc1nn(C)c(-c2c(F)cccc2F)c1C(O)c1ccc(C#N)cc1F (stereo not shown) [compound 22] | 0 | 88 | 0 | 100 | 17 | 84 | 88 |  |  |  |  |
| Cc1nn(C)c(-c2c(F)cccc2F)c1C(O)c1ccc(F)cc1Cl (single isomer, unassigned) [compound 87] | 99 | 100 | 100 |  |  |  | 99 | 99* % | 0* % | 0* % |  |
| Cc1nn(C)c(-c2c(F)cccc2Cl)c1C(C)(O)c1ccc(F)cc1F (stereo not shown) [Compound 29] | 96 | 100 | 0 |  | 0 | 64 | 100 |  |  |  |  |
| Cc1nn(C)c(-c2ccc(F)cc2Br)c1C(=O)c1ccc(F)cc1F [compound 73] |  |  |  |  |  |  |  | 14* % | 0* % | 60* % | Test F rating (% disease control) [1, 6]: 34* %; Test C rating (% disease control) (Septoria nodorum; [6]): 0* %; Test E2 rating (% disease control) [3, 6]: 0* % |
| Cc1nn(C)c(-c2ccc(F)cc2F)c1C(O)c1ccc(F)cc1F (stereo not drawn) [Compound 72, α-(2,4-difluorophenyl)-5-(2,4-difluorophenyl)-1,3-dimethyl-1H-pyrazole-4-methanol] |  |  |  |  |  |  |  |  |  |  | pest or weed control at 40 ppm [1, 6]: 98%; pest or weed control at 40 ppm (Septoria nodorum; [6]): 0%; pest or weed control at 40 ppm (Septoria tritici; [6]): 100%; pest or weed control at 40 ppm [2, 6]: 18%; pest or weed control at 40 ppm (Alternaria solani; [6]): 53%; pest or weed control at 40 ppm [3, 6]: 96% |
| Cc1nn(C)c(-c2c(F)cccc2Cl)c1C(O)c1ccc(Cl)cc1Cl (stereo not shown) [compound 90] | 100 |  |  |  |  |  |  | 100* % | 74* % | 100* % | Test C rating (% disease control) (Septoria nodorum; [6]): 99* %; Test E2 rating (% disease control) [3, 6]: 100* % |
| Cc1nn(C)c(-c2ccc(F)cc2F)c1C(O)c1ccc(F)cc1Cl (stereo not shown) [compound 71] |  |  |  |  |  |  |  | 100* % | 88* % | 78* % | Test F rating (% disease control) [1, 6]: 99* %; Test C rating (% disease control) (Septoria nodorum; [6]): 73* %; Test E2 rating (% disease control) [3, 6]: 99* % |
| Cc1nn(C)c(-c2c(F)cccc2F)c1C(F)c1ccc(Cl)cc1Cl (stereo not shown) [Compound 92] |  |  |  |  |  |  |  | 100* % | 74* % | 99* % | Test F rating (% disease control) [1, 6]: 100* %; Test C rating (% disease control) (Septoria nodorum; [6]): 94* %; Test E2 rating (% disease control) [3, 6]: 99* % |
